Results taken from patent US20230085578A1, “SYSTEMS AND METHODS FOR TRIPLE-PARAMETRIC OPTICAL MAPPING” (The George Washington University, priority 2021, published 2023).
Like-named read-outs stand apart in the source and are kept apart here.

Test system: mouse hearts
Experiment: Triple parametric optical mapping (Vm, Ca2+, NADH) of Langendorff-perfused mouse hearts during drug treatment
Set-up: Effect on contractions of the heart (electromechanical uncoupling): dose or concentration left out as unconfirmed
Conditions: for APD80 (action potential duration) / AR (anisotropic ratio, CVL to CVT) / CVL (longitudinal conduction velocity) / CVT (transverse conduction velocity) / Ca2+ RT (rise time) / Ca t (calcium decay time constant) / CaTD80 (calcium transient duration) / NADH fluorescence intensity (normalized to first recording of the heart) / Vm RT (rise time) / Vm-Ca2+ delay: Blebbistatin 15 μM, Verapamil 1 μM, mean±SEM
Description: Langendorff perfusion: Adult male and female mice on C57BL/6 background were used in this study. Mice were anesthetized by isoflurane inhalation and cervical dislocation was performed. Hearts were quickly excised following thoracotomy and the aorta was cannulated. The heart was attached to a Langendorff perfusion system, hung in a vertical position in a temperature-controlled bath and perfused with a modified Tyrode's solution containing (in mM) 130 NaCl, 24 NaHCO3, 1.2 NaH2PO4, 1 MgCl2, 5.6 Glucose, 4 KCl, 1.8 CaCl2, pH 7.40 and bubbled with carbogen (95% 02 and 5% CO2) at 37° C. Perfusion pressure was maintained at ˜80 mmHg by adjusting the flow rate between 1 and 1.5 ml/min. A platinum bipolar electrode was placed at the center of the anterior surface residing the middle of the field of view. Gentle pressure was applied to the back of the heart as it was pushed up to the front optical glass of the bath using a paddle, allowing the pacing electrode to be held in place. Electrical stimuli were applied to determine the threshold of pacing. Hearts were paced at 1.5× pacing threshold amplitude and 2 ms stimulus duration, only during optical recording. Hearts were paced at varying rates as listed in the figures to determine the restitution properties of the heart under each condition.
Optical Mapping: The heart was subjected to a 10 min equilibration period followed by staining with the voltage- and calcium-sensitive dyes. A 1 ml mixture of RH237 ([…] Tyrode's solution, Biotium 61018) was prepared and immediately injected into the dye port above the cannula over a 3-5 min period. This was followed by a 5 min washout period. Similarly, a 1 ml mixture of Rhod2-AM (30 ul of 1 mg/ml dye stock solution+[…] Tyrode's solution, Thermo Fisher Scientific R1244 and Biotium 59005, respectively) was prepared and immediately injected into the dye port over a 3-5 min period. This was followed by 5 min dye washout period.
The heart was then illuminated by two LED excitation light sources at 365 nm and 520±5 nm wavelengths. While the former induces autofluorescence of NADH in the tissue, the latter excites both RH237 and Rhod2-AM dyes. Control optical recordings of NADH, Vm, and Ca^2+ were simultaneously acquired at 1 kHz sampling rate. NADH, Vm, and Ca^2+ are indicative of […].
[…] […] Optical recordings were once again acquired for each of these conditions as described above.
Data Analysis: Optical data of NADH, transmembrane potential and calcium were analyzed using a custom Matlab software, Rhythm 3.0, which is available in an open-source format on Github. Rhythm 3.0 which is an upgraded version of Rhythm 1.2, incorporates NADH visualization and analysis features as well as the ability to calculate delay in transmembrane potential to intracellular calcium activation (Vm-Ca^2+ Delay). Rhythm software was written to analyze data formats generated by SciMedia systems but can be modified to analyze other data formats.
Ten different parameters were measured from the 3 optical signals that were simultaneously recorded under each condition using the Rhythm 3.0 software to determine MECC. The ten parameters include, from transmembrane potential: (1) rise time (Vm RT), (2) action potential duration (APD80), (3) transverse and (4) longitudinal conduction velocity (CVT and CVL) and (5) anisotropic ratio (AR), from intracellular calcium: (6) rise time (Ca^2+ RT), (7) calcium transient duration (CaTD80), (8) calcium decay time constant (t), (9) Vm-Ca^2+ delay and (10) NADH fluorescence intensity.

## Nc1ccncc1 [4-AP, 4-aminopyridine]
4-AP 7 mM in presence of blebbistatin
  BCL at which pacing of the hearts was prevented (no 1:1 capture): < 125 ms
150 ms BCL, 4-AP 7 mM vs blebbistatin
  Change in CVT (in words): slowed
150 ms BCL, blebbistatin vs Control, 4-AP 7 mM vs blebbistatin
  Change in Ca2+ RT (in words): prolonged
BCL 125, 4-AP 7 mM
  APD80 (action potential duration): 69.09 ± 7.52
  AR (anisotropic ratio, CVL to CVT): 1.80 ± 0.19
  CVL (longitudinal conduction velocity): 0.47 ± 0.07
  CVT (transverse conduction velocity): 0.27 ± 0.05
  Ca2+ RT (rise time): 6.82 ± 1.39
  Ca t (calcium decay time constant): 27.106 ± 6.26
  CaTD80 (calcium transient duration): 79.32 ± 2.28
  NADH fluorescence intensity (normalized to first recording of the heart): 0.98 ± 0.07
  Vm RT (rise time): 5.15 ± 0.29
  Vm-Ca2+ delay: −1.88 ± 1.79
BCL 150, 4-AP 7 mM
  APD80 (action potential duration): 78.13 ± 3.52
  AR (anisotropic ratio, CVL to CVT): 1.90 ± 0.45
  CVL (longitudinal conduction velocity): 0.53 ± 0.09
  CVT (transverse conduction velocity): 0.28 ± 0.05
  Ca2+ RT (rise time): 7.05 ± 1.03
  Ca t (calcium decay time constant): 30.94 ± 5.51
  CaTD80 (calcium transient duration): 88.37 ± 6.37
  NADH fluorescence intensity (normalized to first recording of the heart): 0.97 ± 0.06
  Vm RT (rise time): 4.94 ± 0.63
  Vm-Ca2+ delay: −1.71 ± 2.13
BCL 200, 4-AP 7 mM
  APD80 (action potential duration): 84.56 ± 6.68
  AR (anisotropic ratio, CVL to CVT): 1.97 ± 0.37
  CVL (longitudinal conduction velocity): 0.66 ± 0.06
  CVT (transverse conduction velocity): 0.32 ± 0.05
  Ca2+ RT (rise time): 7.04 ± 1.57
  Ca t (calcium decay time constant): 37.11 ± 11.58
  CaTD80 (calcium transient duration): 96.41 ± 8.18
  NADH fluorescence intensity (normalized to first recording of the heart): 0.97 ± 0.07
  Vm RT (rise time): 4.79 ± 0.23
  Vm-Ca2+ delay: −1.48 ± 1.38
All tested pacing rates, vs blebbistatin
  Change in APD80 (in words): prolonged

## Cc1ccc2c(c1)C(=O)C1(O)CCN(c3ccccc3)C1=N2 (centres unmarked) [Blebbistatin, blebbistatin]
  Change in CVT (in words): faster
  Change in Ca2+ RT (in words): increased
  Change in NADH intensity (in words): reduced
  Number of the 10 measured parameters altered: 2
blebbistatin
  Effect on contractions of the heart (electromechanical uncoupling): abolished contractions

## COc1ccc(CCN(C)CCCC(C#N)(c2ccc(OC)c(OC)c2)C(C)C)cc1OC (centres unmarked) [Verapamil, verapamil]
BCL 80
  APD80 (action potential duration): 31.06 ± 0.00
  CVL (longitudinal conduction velocity): 0.28 ± 0.00
  CVT (transverse conduction velocity): 0.21 ± 0.00
  Ca2+ RT (rise time): 8.09 ± 0.00
  Ca t (calcium decay time constant): 13.71 ± 0.00
  CaTD80 (calcium transient duration): 60.74 ± 0.00
  NADH fluorescence intensity (normalized to first recording of the heart): 1.04 ± 0.00
  Vm-Ca2+ delay: −2.81 ± 0.00
BCL 90
  APD80 (action potential duration): 44.72 ± 9.21
  CVL (longitudinal conduction velocity): 0.35 ± 0.03
  CVT (transverse conduction velocity): 0.18 ± 0.04
  Ca2+ RT (rise time): 8.16 ± 1.36
  Ca t (calcium decay time constant): 17.15 ± 1.92
  CaTD80 (calcium transient duration): 63.46 ± 2.71
  NADH fluorescence intensity (normalized to first recording of the heart): 0.98 ± 0.07
  Vm RT (rise time): 4.65 ± 0.10
  Vm-Ca2+ delay: −6.07 ± 2.54
BCL 100
  APD80 (action potential duration): 45.75 ± 10.51
  CVL (longitudinal conduction velocity): 0.60 ± 0.02
  CVT (transverse conduction velocity): 0.23 ± 0.03
  Ca2+ RT (rise time): 9.54 ± 0.43
  Ca t (calcium decay time constant): 20.41 ± 3.36
  CaTD80 (calcium transient duration): 69.61 ± 3.02
  NADH fluorescence intensity (normalized to first recording of the heart): 0.99 ± 0.08
  Vm RT (rise time): 4.70 ± 0.39
  Vm-Ca2+ delay: −5.22 ± 1.73
BCL 125, 4-AP 7 mM
  APD80 (action potential duration): 49.46 ± 6.20
  CVL (longitudinal conduction velocity): 0.59 ± 0.03
  CVT (transverse conduction velocity): 0.28 ± 0.03
  Ca2+ RT (rise time): 8.28 ± 0.96
  Ca t (calcium decay time constant): 32.14 ± 11.32
  CaTD80 (calcium transient duration): 77.16 ± 7.51
  NADH fluorescence intensity (normalized to first recording of the heart): 0.99 ± 0.08
  Vm RT (rise time): 4.57 ± 0.25
  Vm-Ca2+ delay: −7.06 ± 4.13
BCL 150, 4-AP 7 mM
  APD80 (action potential duration): 54.39 ± 11.88
  CVL (longitudinal conduction velocity): 0.67 ± 0.02
  CVT (transverse conduction velocity): 0.29 ± 0.01
  Ca2+ RT (rise time): 9.31 ± 0.93
  Ca t (calcium decay time constant): 32.38 ± 4.88
  CaTD80 (calcium transient duration): 89.183 ± 11.79
  NADH fluorescence intensity (normalized to first recording of the heart): 0.99 ± 0.08
  Vm RT (rise time): 4.70 ± 0.46
  Vm-Ca2+ delay: −5.24 ± 2.31
BCL 200, 4-AP 7 mM
  APD80 (action potential duration): 55.28 ± 2.94
  CVL (longitudinal conduction velocity): 0.56 ± 0.09
  CVT (transverse conduction velocity): 0.30 ± 0.05
  Ca2+ RT (rise time): 9.14 ± 1.31
  Ca t (calcium decay time constant): 39.09 ± 5.88
  CaTD80 (calcium transient duration): 106.68 ± 19.92
  NADH fluorescence intensity (normalized to first recording of the heart): 0.99 ± 0.07
  Vm RT (rise time): 4.72 ± 0.28
  Vm-Ca2+ delay: −8.14 ± 4.48
